Key:
[1] = molecular target: T1, PIT3/PPIR ON (Streptomyces coelicolor, UniProt Q9ADN3); experiment: PipON SEAP assay, CHO-K1 cotransfected with pMF208 (PPIR ON-SEAP) and pMF207 (PIT3; Pip-KRAB); assay type: cell-based
T1 construct: pMF207 with pMF208 in CHO-K1
T1 sequence (Q9ADN3 1-252): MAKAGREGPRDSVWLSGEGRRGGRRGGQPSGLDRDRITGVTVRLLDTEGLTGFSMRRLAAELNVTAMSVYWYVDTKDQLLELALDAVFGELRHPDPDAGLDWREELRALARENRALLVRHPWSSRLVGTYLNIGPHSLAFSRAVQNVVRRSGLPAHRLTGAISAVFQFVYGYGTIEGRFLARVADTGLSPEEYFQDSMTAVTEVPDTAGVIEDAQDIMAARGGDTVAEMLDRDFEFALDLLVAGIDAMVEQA
Source text: The Classical PIT/PPIR system belongs to the "OFF" family of regulation concepts since gene expression is activated upon withdrawal of the regulating antibiotic. However, in some applications such as gene therapy and tissue engineering an "ON" system which is induced upon addition of streptogramin antibiotics is more desirable. We therefore constructed a new Pip-based binary PION system which consists of a PPIR ON promoter and a set of two different transrepressors. PPIR ON consists of a PIR3 module containing 3 consecutive Pip binding elements (SEQ ID NO:21; Example 3) placed in front of the strong viral SV40 promoter. Transrepressors such as PIT3, which consists of a protein fusion between Pip and the KRAB silencing domain of the human kox-1 gene (Deuschle et al., 1995, Mol. Cell Biol. 15: 1907-1914) and PIT4, which is simply Pip expressed in a eukaryotic configuration, bind to PIR3 in front of PSV40 and block transcription of this promoter. Besides sterical transcription blocking the silencing domain of PIT3 can additionally downregulate PSV40 activity. […]
Table 9: Comparison of the regulation characteristics of the PipON systems. CHO-K1 cells were simultaneously cotransfected with the plasmids indicated and the SEAP readout (slope a of the p-nitrophenolphosphate-based light absorbance time courses) was determined in the presence and absence of pristinamycin 48 hr post transfection. […]

[2] = tested on: CHO cells; experiment: CHO cell morphology, growth and toxicity; assay type: cell-based, Chinese hamster
Protocol: However, pristinamycin has no influence on expression levels of PSV40 or PCMV -driven SEAP expression constructs (data not shown). […] Similar PI-dependent gene expression using the PIT/PPIR system has also been observed in BHK-21 and HeLa cells (not shown). […] This is the same order of magnitude as tissue concentrations reached in antibiotic therapy. Only much higher PI concentrations (above 50 μg/ml) were toxic for CHO cells.

pristinamycin I [PI]
SEAP readout (slope of the p-nitrophenolphosphate-based light absorbance time courses) ([1]; +PI (2 μg/ml) column, CHO + pMF208 + pMF207, 48 hr post transfection): 0.00055 ± 0.0003
Induction factor ([1]; PIT3-PPIR ON configuration, 2880 min): about 150
Effects on CHO cell morphology and growth ([2]; PI 2 μg/ml): No deleterious effects
PI concentration toxic for CHO cells ([2]; hamster, cho cells): above 50 μg/ml
